{
  "source": "patent US20110213236A1",
  "about": "“THERAPEUTIC COMPOSITIONS, DEVICES AND METHODS FOR OBSERVING TREATED TISSUES” (IMMUNOPATH PROFILE, INC., priority 2008, published 2011)",
  "format_in_all_cases": "in vivo, human",
  "key": {"gout": {"test_system": "gout", "assay": "Gout", "conditions": "locally added to the transdermal cream", "from_the_text": "This acute musculoskeletal strain and severe foot pain occurred when getting out of bed, and standing with bare feet. The strain was associated with extensive standing and walking without their customary shoe arch support. […] The use of Advil liquid filled capsules solubilized ibuprofen locally added to the transdermal cream expedited the reversal of acute gout after one-two applications.\nWhen used transdermally on all these examples, the permeability was increased with the subsequent use of the heating pad, but in the case of the Gout, it was used at its mildest level. […] In the treatment of Gout, the patient responded first to the Resveratrol enriched transdermal cream as in Example Group 2 locally applied used 3 times daily, with Garlic powder by Oregon Wild Harvest, specially processed, air-dried, and ground with a water-cooled grinding system to avoid generating heat, was sprinkled onto the wound as an anti-fungal agent derived from the cloves and root system of the Garlic plant and serving as a GRAS item to impart the innate immunity found in the defensin adaptogen of the plant, with good success."}, "atrial fibrillation": {"test_system": "atrial fibrillation", "assay": "Atrial fibrillation patient treated with Cardizem and subject composition", "from_the_text": "We see the same effect in the remarkable drug, Levodopa, in the treatment of Parkinsonism with the side effects of stroke, heart attack, and substantia nigra, basal ganglia damage. […] The total studies were almost 30,000 in number and BIOMARKERS TISSUE […] AND […] TARGETS FOR CARDIAC […] Cardiac arrhythmia nutritional deficiencies, 496 studies compared with:\nVitamin B1 was cited as the most critical of preventing and reversing arrhythmia in starvation studies. Omega-3 fish oil was shown pre-clinically to be effective in the animal heart studies: after it was digested from and enzymatic release from glycerol was not only shown by Leaf in vitro in the isolated beating animal heart muscle to prevent toxicity effects of toxic chemicals. On our chemical moiety orientated spreadsheet where we listed more than 1,400 studies documenting the efficacy of magnesium.\nWith complete components listed in the spreadsheet of indicated diseases, giving a more complete list, provides by maximizing and optimizing efficacy and safety in the foregoing subject composition free of undesirable effects not only for the treatment of disease but for averting these undesirable side-effects. […]"}, "[1]": {"test_system": "degenerative osteoarthritis of the knee", "assay": "Degenerative osteoarthritis of the knee and pulled ligament, lotion", "conditions": "600 mg", "experimental": "A dentist was diagnosed with degenerative osteoarthritis of the left knee in 2001, by an orthopedic surgeon at the Henry Ford Health System in Farmington Hillsi Mich. At that time, they were […], and was working 55 hours per week at their dental practice. The orthopedic surgeon advised a complete knee replacement since the joint space was minimal as per the M.Rt. The meniscus had worn away from athletics and job requirements. The option was chosen of using occasional steroid injections in times of severe inflammation along with the daily use of Celebrex until they could no longer function, rather than have such an irreversible traumatic operation, at their age. The doctor agreed. Their quality of life was affected as was their comfort during work.\nA few years later, the right knee ligaments were starting to weaken resulting in much pain and dysfunction, the now patient's gait was hobbled to a severe limp.\nA composition of the subject invention in lotion form was applied twice daily after warming the area with a moist-heat heating pad for a few minutes.\nPlans for a knee replacement were put on hold. The patient subsequently suffered a ligament pulled ligament in the groin. The ligament was also treated with the same composition In three days the pain was gone."}},
  "data": [
    {"smiles": "CC(C)Cc1ccc(C(C)C(=O)O)cc1", "note": "(stereo not drawn) [Advil, ibuprofen]", "values": [
      {"measurement": "applications until reversal of acute gout", "setting": "gout", "value": "one-two"}
    ]},
    {"smiles": "COc1ccc([C@@H]2Sc3ccccc3N(CCN(C)C)C(=O)[C@@H]2OC(C)=O)cc1", "note": "[Cardizem]", "values": [
      {"measurement": "side effects on the second dose", "setting": "atrial fibrillation", "value": "pain, inability to walk, and weakness"}
    ]},
    {"smiles": "CC(C)Cc1ccc(C(C)C(=O)O)cc1", "note": "(stereo not drawn) [Ibuprofen]", "values": [
      {"measurement": "effect on knee pain and dysfunction", "setting": "[1]", "value": "helpful but not therapeutic"}
    ]}
  ]
}
